Reference: PubChem BioAssay AID488958 (The Scripps Research Institute Molecular Screening Center, 2010)
pIC50: −log10 of the molar value. Active and inactive are the calls of the source. The rule behind the calls is not given here.

These compounds were tested against 3C-like protease (Infectious bronchitis virus, as filed; assay for SARS-CoV 3CLpro) (assay: potency of SARS-CoV 3CLpro inhibitors, late-stage follow-up, biochemical, fluorescence, dose response (AID 488958)). Settings: recombinant 3CLpro, fluorogenic peptide cleavage.

Row | SMILES | IC50 | pIC50
1 | CC(C)(C)NC(=O)C(c1cncnc1)N(C(=O)c1cnc[nH]1)c1ccc(C(C)(C)C)cc1 (stereo unspecified) | inactive | 
2 | CCC(C)c1ccc(N(C(=O)c2ccco2)[C@H](C(=O)NC(C)(C)C)c2cccnc2)cc1 (stereo partly specified) |  | 5.64
3 | CC(C)(C)NC(=O)C(c1cccnc1)N(C(=O)c1ccc(Cl)o1)c1ccc(C(C)(C)C)cc1 (stereo unspecified) |  | 5.28
4 | CC(C)(C)NC(=O)C(c1cccnc1)N(C(=O)c1ncco1)c1ccc(C(C)(C)C)cc1 (stereo unspecified) | inactive | 
5 | CC(=O)Nc1ccc(N(C(=O)Cn2nnc3ccccc32)C(C(=O)NC(C)(C)C)c2cccc(F)c2)cc1 (stereo unspecified) |  | 5.20
6 | CC(=O)Nc1ccc(N(C(=O)Cn2nnc3ccccc32)C(C(=O)NCc2ccccc2)c2cccc(F)c2)cc1 (stereo unspecified) |  | 5.54
